In the NIST ThermoML archive (doi:10.1016/j.jct.2015.09.022):

Experiment: xn = mol fraction of the nth substance listed
Conditions: 100.7 kPa, Liquid; for speed of sound: Frequency=3 MHz, Sing-around technique in a fixed-path interferometer; for mass density: Vibrating tube method; for viscosity: Falling or rolling sphere viscometry

CCCC[n+]1ccn(C)c1.O=S(=O)([N-]S(=O)(=O)C(F)(F)F)C(F)(F)F + CCCCOC(C)=O
Conditions | mass density, 318.15 K [kg/m3] | mass density, 323.15 K [kg/m3] | speed of sound, 318.15 K [m/s] | speed of sound, 323.15 K [m/s] | viscosity, 323.15 K [mPa·s]
x1 = 0.0252 | – | – | – | 1089.6 | –
x1 = 0.0521 | – | – | – | 1090.2 | –
x1 = 0.0754 | – | – | – | 1091.3 | –
x1 = 0.11 | 982.52 | 977.62 | – | 1092.3 | 0.83
x1 = 0.2089 | 1071.24 | 1066.34 | – | 1101.2 | 1.37
x1 = 0.2993 | 1137.09 | 1132.21 | – | 1109.9 | 2
x1 = 0.393 | 1194.31 | 1189.38 | 1132 | 1118.7 | 2.93
x1 = 0.4847 | 1241.85 | 1236.98 | 1140.8 | 1127.9 | 4.14
x1 = 0.5739 | 1281.71 | 1276.92 | 1148.4 | 1136 | 5.48
x1 = 0.687 | 1325.49 | 1320.8 | 1159.3 | 1147.5 | 8.24
x1 = 0.7791 | 1356.79 | 1352.11 | 1168 | 1155.7 | 10.74
x1 = 0.9056 | 1393.84 | 1389.18 | 1178.5 | 1166.3 | 15.82
x1 = 1 | 1417.6 | 1412.86 | 1184.5 | 1171.3 | 20.32
